Consider 17 compounds from PubChem BioAssay (NCI).

Test systems include ACHN renal; EKVX NSCLC; IGROV1 ovarian; MDA-MB-231 breast; MDA-MB-435; MOLT-4 leukemia; NCI-H522 lung; RPMI-8226 leukemia.
Holding throughout (assay): DTP human tumour cell line panel, 48 h

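48-hour exposure; five concentrations; linearly interpolated endpoints. The concentration for 50% growth inhibition is given as GI50. TGI denotes the concentration required for complete inhibition of growth.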 Bounds are passed on as bounds.

As for `CCCCCc1cc(/C=C2/N=C(c3ccc[nH]3)C=C2OC)[nH]c1C`, the TGI in the test on ACHN renal stood at 0.113 µM; in the test on EKVX NSCLC it was 1.4 µM; with IGROV1 ovarian it was 0.195 µM; in the test on MDA-MB-231 breast it was 0.0999 µM; in the test with MDA-MB-435, 0.187 µM; in the test with MOLT-4 leukemia it was 0.134 µM. The TGI with NCI-H522 lung was 0.209 µM.
`O=C1CCc2cc(Br)ccc2O1`: the TGI with ACHN renal, with EKVX NSCLC, with IGROV1 ovarian, with MDA-MB-435, in the test with MOLT-4 leukemia and with NCI-H522 lung was greater than 100 µM each time. In addition, the TGI with RPMI-8226 leukemia is greater than 100 µM.
Take `CC(C)C[C@H](NC(=O)[C@@H](Cc1ccccc1)n1ccc(Nc2ccccc2)cc1=O)B(O)O`: the concentration for 50% growth inhibition (GI50) with ACHN renal is 0.358 µM; in the test on IGROV1 ovarian, 1.33 µM; with MDA-MB-231 breast it was 0.595 µM; in the test with MDA-MB-435, 0.155 µM; in the test with MOLT-4 leukemia, 0.247 µM; in the test with NCI-H522 lung, 0.242 µM. Besides, the concentration for 50% growth inhibition (GI50) in the test on RPMI-8226 leukemia was 0.154 µM. Moreover, the TGI in the test with ACHN renal was greater than 100 µM; with IGROV1 ovarian it was 27.9 µM; with MDA-MB-231 breast, 4.37 µM; in the test on MDA-MB-435 it was 0.34 µM; with MOLT-4 leukemia it was greater than 100 µM; with NCI-H522 lung, 0.821 µM. This compound came in with a total growth inhibition concentration (TGI) in the test on RPMI-8226 leukemia of 3.87 µM.
As for `Cc1ccc(NC(=S)NNC(=S)Nc2ccc(C)cc2)cc1`, the GI50 is 9.7 µM with ACHN renal; 17.9 µM in the test on EKVX NSCLC; 6.24 µM in the test on IGROV1 ovarian; 65.4 µM in the test on MDA-MB-231 breast; 2.5 µM in the test with MDA-MB-435; 2.03 µM in the test on NCI-H522 lung. In addition, the GI50 in the test with RPMI-8226 leukemia was 4.46 µM. In addition, the total growth inhibition concentration (TGI) with ACHN renal is greater than 100 µM; in the test on EKVX NSCLC, greater than 100 µM; in the test on IGROV1 ovarian, greater than 100 µM; in the test on MDA-MB-231 breast it was greater than 100 µM; in the test with MDA-MB-435 it was greater than 100 µM; with NCI-H522 lung it was 5.83 µM. The TGI in the test on RPMI-8226 leukemia was 65.3 µM.
On to `Nc1c(C(=O)Nc2cccc(Cl)c2)sc2nc3c(cc12)C(O)CCC3` (configuration not stated), for which the GI50 is 1.04 µM in the test on ACHN renal; 0.992 µM with IGROV1 ovarian; 1.92 µM with MDA-MB-231 breast; 0.121 µM in the test on MDA-MB-435; 0.488 µM in the test on MOLT-4 leukemia; 0.434 µM in the test with NCI-H522 lung. The GI50 with RPMI-8226 leukemia is 0.36 µM. The total growth inhibition concentration (TGI) with ACHN renal was 23.4 µM; in the test on IGROV1 ovarian, 40.7 µM; in the test with MDA-MB-231 breast it was 49.1 µM; with MDA-MB-435, 0.408 µM; in the test with MOLT-4 leukemia, greater than 57.7 µM; in the test on NCI-H522 lung it was 23.6 µM. For the same compound, the TGI in the test on RPMI-8226 leukemia was 5.01 µM.
As to `CCN1CCN(Cc2ccc(Nc3ncc(F)c(-c4cc(F)c5nc(C)n(C(C)C)c5c4)n3)nc2)CC1`, the GI50 in the test with ACHN renal was 0.172 µM; with IGROV1 ovarian, 2.03 µM; with MDA-MB-231 breast, 6.29 µM; with MDA-MB-435 it was 0.191 µM; in the test with MOLT-4 leukemia, 0.156 µM; in the test with NCI-H522 lung it was 8.92 µM. Moreover, the GI50 in the test on RPMI-8226 leukemia is 6.68 µM. The TGI came to 9.56 µM with ACHN renal; 13.1 µM in the test on IGROV1 ovarian; 13 µM with MDA-MB-231 breast; 10.7 µM with MDA-MB-435; 9.85 µM with MOLT-4 leukemia; 18.1 µM in the test with NCI-H522 lung. The same compound gave a TGI in the test on RPMI-8226 leukemia of 19.1 µM.
`Clc1nc(Cl)c2ncn(-c3ccccc3)c2n1`: the GI50 with ACHN renal was 1.96 µM; with EKVX NSCLC, 4.49 µM; with IGROV1 ovarian it was 1.66 µM; in the test on MDA-MB-231 breast, 10.7 µM; with MDA-MB-435, 3.32 µM; with MOLT-4 leukemia, 7.95 µM. In addition, in the test with NCI-H522 lung, the GI50 is 1.9 µM. Besides, the TGI was determined as 4.12 µM with ACHN renal; 19.2 µM with EKVX NSCLC; 3.38 µM with IGROV1 ovarian; 24.5 µM in the test on MDA-MB-231 breast; 13.2 µM in the test with MDA-MB-435; 52.3 µM in the test with MOLT-4 leukemia. The compound further registered a TGI in the test with NCI-H522 lung of 5.09 µM.
As for `CCOc1cc(Cl)c(C(C)NC(=O)c2cccc(OC)c2)cc1OCC` (configuration not stated), the GI50 with ACHN renal was 20.1 µM; in the test on IGROV1 ovarian, 17.5 µM; in the test with MDA-MB-231 breast it was 11.1 µM; in the test with MOLT-4 leukemia, 5.91 µM; in the test on NCI-H522 lung it was 5.04 µM; with RPMI-8226 leukemia, 16.1 µM. The concentration for total growth inhibition (TGI) is greater than 100 µM with ACHN renal; greater than 100 µM in the test on IGROV1 ovarian; greater than 100 µM with MDA-MB-231 breast; greater than 100 µM in the test with MOLT-4 leukemia; 39.7 µM with NCI-H522 lung; greater than 100 µM in the test with RPMI-8226 leukemia.
Take `Cc1ccc2ncnc(N(C)C3CCCCC3)c2c1`: the GI50 in the test with ACHN renal was 29 µM; in the test with IGROV1 ovarian, 34.1 µM; in the test on MDA-MB-435, 23 µM; in the test with MOLT-4 leukemia it was 14.4 µM; in the test with NCI-H522 lung it was 39 µM; with RPMI-8226 leukemia it was 6.11 µM. Also, the TGI in the test with ACHN renal was greater than 100 µM; in the test with IGROV1 ovarian it was greater than 100 µM; in the test with MDA-MB-435 it was 68.2 µM; in the test with MOLT-4 leukemia it was 63.6 µM; in the test on NCI-H522 lung, greater than 100 µM; with RPMI-8226 leukemia, 28.7 µM.
For the compound `CC(=O)OC(COc1ccc2c(c1)[n+]([O-])nc(N)[n+]2[O-])CN1CCCCC1` (configuration not stated), the TGI with ACHN renal is 39.3 µM; with MDA-MB-231 breast it was 28 µM; with MDA-MB-435, greater than 100 µM; in the test with MOLT-4 leukemia, 14.8 µM; with NCI-H522 lung it was 38.7 µM; in the test on RPMI-8226 leukemia, 25.8 µM.
For `O=C1NC(c2ccc3ccccc3c2)Nc2ccccc21` (configuration not stated), the TGI in the test on ACHN renal was greater than 100 µM; with EKVX NSCLC it was greater than 100 µM; with IGROV1 ovarian, greater than 100 µM; in the test on MDA-MB-231 breast, greater than 100 µM; in the test on MDA-MB-435, 50.7 µM; with RPMI-8226 leukemia it was 69.8 µM.
In the case of `COC(=O)C1c2cc3c(c(O)c2CCC1(C)O)C(=O)c1c(O)cc2c(c1C3=O)OC1OC2(C)C(O)C(N(C)C)C1O` (configuration not stated), the TGI in the test with ACHN renal came out at 1.17 µM; in the test on EKVX NSCLC, 0.774 µM; in the test with IGROV1 ovarian, 2.35 µM; with MDA-MB-231 breast it was 1.69 µM; with MDA-MB-435, 2.17 µM; in the test with MOLT-4 leukemia, 0.357 µM. For the same compound, the TGI with NCI-H522 lung was determined as 2.81 µM.
As for `Cc1ccc(C2=NN(c3ccc(S(=O)(=O)NC(=O)NCc4ccccc4)cc3)C(c3ccc(N(C)C)cc3)C2)c(C)c1` (configuration not stated), the GI50 in the test with ACHN renal was 3.97 µM; with IGROV1 ovarian, 4.31 µM; with MDA-MB-231 breast it was 4.16 µM; in the test on MDA-MB-435, 2.51 µM; in the test on MOLT-4 leukemia, 3.65 µM; in the test on NCI-H522 lung, 4.48 µM. In the test with RPMI-8226 leukemia, the GI50 was 2.88 µM. Further, the total growth inhibition concentration (TGI) is greater than 100 µM with ACHN renal; 13.6 µM in the test on IGROV1 ovarian; 22.4 µM in the test with MDA-MB-231 breast; 7.08 µM in the test on MDA-MB-435; 73.8 µM in the test on MOLT-4 leukemia; 28.7 µM with NCI-H522 lung. In the test on RPMI-8226 leukemia, this compound displayed a TGI of 10.6 µM.
Regarding `COc1ccc(OC)c(C2=C(c3cn(C)c4ccccc34)C(=O)NC2=O)c1`, the GI50 in the test on ACHN renal is greater than 25 µM; in the test on IGROV1 ovarian, greater than 25 µM; in the test on MDA-MB-231 breast, greater than 25 µM; in the test with MDA-MB-435, 8.6 µM; with MOLT-4 leukemia it was 24.6 µM; with NCI-H522 lung, greater than 25 µM. Moreover, the GI50 in the test on RPMI-8226 leukemia was greater than 25 µM. Further, the concentration for total growth inhibition (TGI) in the test on ACHN renal, in the test on IGROV1 ovarian, in the test with MDA-MB-231 breast, with MDA-MB-435, in the test on MOLT-4 leukemia and with NCI-H522 lung was greater than 25 µM in each case. This compound also had a TGI in the test on RPMI-8226 leukemia greater than 25 µM.
Take `O=C1/C(=C/c2ccc(Cl)cc2)CN(Cc2cn(CCCNc3ccnc4cc(Cl)ccc34)nn2)C/C1=C\c1ccc(Cl)cc1`: the GI50 in the test on ACHN renal is 1.45 µM; in the test on IGROV1 ovarian it was 1.29 µM; in the test with MDA-MB-231 breast, 0.757 µM; in the test with MDA-MB-435 it was 1.3 µM; in the test on MOLT-4 leukemia, 0.878 µM; in the test with NCI-H522 lung, 1.61 µM. In addition, the 50% growth inhibitory concentration (GI50) with RPMI-8226 leukemia is 0.285 µM. Moreover, the TGI was 2.84 µM with ACHN renal; 3.12 µM in the test on IGROV1 ovarian; 2.45 µM with MDA-MB-231 breast; 2.69 µM in the test on MDA-MB-435; greater than 24.5 µM with MOLT-4 leukemia; 3.17 µM in the test on NCI-H522 lung. This compound also registered a TGI in the test on RPMI-8226 leukemia of 0.878 µM.
Turning to `CC(=O)Oc1ccc(C2OC(c3ccc4ccccc4c3OC(C)=O)=NN2C(C)=O)c(OC(C)=O)c1` (configuration not stated), the GI50 with ACHN renal is 0.264 µM; in the test with IGROV1 ovarian it was 0.348 µM; with MDA-MB-231 breast, 0.506 µM; with MDA-MB-435, 0.638 µM; with MOLT-4 leukemia it was 0.454 µM; in the test with NCI-H522 lung, 0.369 µM. For the same compound, the GI50 with RPMI-8226 leukemia is 0.568 µM. In addition, the TGI is greater than 100 µM in the test with ACHN renal; 15.1 µM with IGROV1 ovarian; greater than 89.6 µM in the test with MDA-MB-231 breast; greater than 65 µM in the test with MDA-MB-435; greater than 100 µM with MOLT-4 leukemia; 6.22 µM in the test on NCI-H522 lung. Besides, in the test on RPMI-8226 leukemia, the total growth inhibition concentration (TGI) was greater than 39.5 µM.
Take `O=S(=O)(NCCNc1nccc(-c2c(-c3ccc(F)cc3)nc3sccn23)n1)c1ccc(O)cc1`: the GI50 in the test on ACHN renal is 2.03 µM; in the test with IGROV1 ovarian, 1.7 µM; in the test with MDA-MB-231 breast it was 7.77 µM; in the test with MDA-MB-435 it was 1.07 µM; with MOLT-4 leukemia, 3.21 µM; in the test with NCI-H522 lung it was 3.51 µM. For the same compound, the GI50 in the test on RPMI-8226 leukemia is 4.52 µM. In addition, the concentration for total growth inhibition (TGI) in the test with ACHN renal was 45.6 µM; in the test on IGROV1 ovarian, 13.7 µM; in the test with MDA-MB-231 breast, 70.1 µM; with MDA-MB-435 it was 14.8 µM; in the test on MOLT-4 leukemia it was 15.7 µM; in the test with NCI-H522 lung it was 19.2 µM. For the same compound, in the test with RPMI-8226 leukemia, the concentration for total growth inhibition (TGI) is 29.3 µM.
